Patent publication US20240245658A1, “TAAR1 AND SEROTONIN MODULATORS, AND PHARMACEUTICAL COMPOSITIONS, AND METHODS OF USE THEREOF” (Sunovion Pharmaceuticals Inc., priority 2021, published 2024)
Where two headings read alike, the source gives them in different places.

Assays:
Assay type in all cases: cell-based
human TAAR1 receptors = target: T1, human TAAR1 receptors (Homo sapiens, UniProt Q96RJ0); experiment: TAAR1 Agonism Assay: cAMP HTRF assay for Gs coupled receptor TAAR1 (Euroscreen FAST-0987C); conditions: CHO-K1 cells expressing human TAAR1, cAMP HTRF
T1 construct: host or cells: CHO-K1
T1 sequence (Q96RJ0 1-339): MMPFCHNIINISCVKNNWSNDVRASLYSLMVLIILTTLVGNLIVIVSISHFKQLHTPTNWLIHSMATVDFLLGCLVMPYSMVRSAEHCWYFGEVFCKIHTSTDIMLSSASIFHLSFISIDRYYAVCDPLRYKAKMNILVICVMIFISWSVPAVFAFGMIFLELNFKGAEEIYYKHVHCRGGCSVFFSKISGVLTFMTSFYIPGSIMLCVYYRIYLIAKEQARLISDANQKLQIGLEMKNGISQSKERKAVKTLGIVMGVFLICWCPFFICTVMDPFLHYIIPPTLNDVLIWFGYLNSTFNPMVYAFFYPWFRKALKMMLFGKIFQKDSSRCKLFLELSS
Outline: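 cAMP accumulation detected by HTRF fluorescence ratio, reagents added in lysis buffer and incubated 1 h at about room temperature. Beforehand, cells (about 3,000 per well) sat with test compound at ten concentrations from 0.3 to 10,000 nM in duplicate for roughly 30 min at about room temperature; tyramine dose-response run alongside.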

human 5-HT2A receptor = target: T2, human 5-HT2A receptor (Homo sapiens, UniProt P28223); experiment: 5HT2A Antagonism Assay (Euroscreen FAST-05051), IP-One HTRF
T2 construct: host or cells: CHO-K1
T2 sequence (P28223 whole entry): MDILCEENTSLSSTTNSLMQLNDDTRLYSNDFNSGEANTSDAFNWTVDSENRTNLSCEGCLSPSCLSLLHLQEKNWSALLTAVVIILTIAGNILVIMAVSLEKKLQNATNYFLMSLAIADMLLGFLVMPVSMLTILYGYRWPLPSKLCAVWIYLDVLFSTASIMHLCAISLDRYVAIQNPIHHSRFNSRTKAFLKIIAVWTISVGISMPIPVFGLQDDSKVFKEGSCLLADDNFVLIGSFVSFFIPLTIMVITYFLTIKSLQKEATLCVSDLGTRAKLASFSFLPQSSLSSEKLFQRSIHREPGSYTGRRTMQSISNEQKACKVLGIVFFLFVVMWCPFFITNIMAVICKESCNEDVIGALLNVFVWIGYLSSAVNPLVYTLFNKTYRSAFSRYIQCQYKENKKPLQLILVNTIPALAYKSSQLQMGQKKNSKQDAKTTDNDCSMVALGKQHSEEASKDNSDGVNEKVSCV
Outline: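 CHO-K1 cells expressing receptor, 20,000/well, co-incubated with test compound and reference agonist at its EC80 for 60 min at 37 °C. IP1 accumulation read by HTRF after ~1 h detection at room temperature. Compounds tested in duplicate at 0.3–10,000 nM.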

human 5-HT7 receptor = target: T3, human 5-HT7 receptor (Homo sapiens, UniProt P34969); experiment: 5HT7 Antagonism Assay (Euroscreen FAST-0499C), cAMP HTRF; conditions: CHO-K1 cells expressing human 5-HT7, reference agonist at EC80, cAMP HTRF
T3 construct: host or cells: CHO-K1
T3 sequence (P34969 whole entry): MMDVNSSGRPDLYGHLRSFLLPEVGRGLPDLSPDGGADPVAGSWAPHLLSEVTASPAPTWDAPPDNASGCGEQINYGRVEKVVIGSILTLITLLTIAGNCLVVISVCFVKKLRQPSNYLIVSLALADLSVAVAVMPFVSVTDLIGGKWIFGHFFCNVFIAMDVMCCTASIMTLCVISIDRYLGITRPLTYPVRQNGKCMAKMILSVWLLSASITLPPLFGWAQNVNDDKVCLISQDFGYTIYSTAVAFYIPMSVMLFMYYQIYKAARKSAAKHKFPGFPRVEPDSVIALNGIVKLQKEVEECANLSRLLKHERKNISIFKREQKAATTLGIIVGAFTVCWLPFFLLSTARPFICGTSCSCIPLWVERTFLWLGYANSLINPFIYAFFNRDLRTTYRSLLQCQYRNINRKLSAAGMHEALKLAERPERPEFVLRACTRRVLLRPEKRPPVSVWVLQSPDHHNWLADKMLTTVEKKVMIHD
Outline: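 CHO-K1 cells expressing human 5-HT7, 3000 per well in Krebs-Ringer HEPES with 1 mM IBMX, were exposed for 30 minutes at room temperature to compound plus reference agonist at its EC80. cAMP was read by HTRF after 1 hour; compounds were tested in duplicate from 0.3 to 10,000 nM.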

[1] = read-out: 5-HT2A (IC50), CHO-K1 cells expressing human 5-HT2A, reference agonist at EC80, IP-One
[2] = 5-HT2A (IC50), CHO-K1 cells expressing human 5-HT2A, reference agonist at EC80, IP-One
[3] = CHO-K1 cells expressing human 5-HT2A, reference agonist at EC80, IP-One, read-out: 5-HT2A (IC50)

Q: Which EC50 (human TAAR1 receptors) does the source give for `NCC1Cc2ncccc2Oc2ccc(F)cc21` (single isomer, unassigned) [Compound 164, (S*)-(8-fluoro-10,11-dihydrobenzo[6,7]oxepino[3,2-b]pyridin-10-yl)methanamine] here?
A: The EC50 was less than 1 µM.

Q: What about the IC50 (human 5-HT2A receptor; [1]) of the same compound?
A: The IC50 was 1 to 10 µM.

Q: What about the IC50 (human 5-HT7 receptor) of the same compound?
A: Its IC50 is no less than 10 µM.

Q: Which results are given for `CNCC1Cc2ncccc2Oc2ccc(F)cc21` (single isomer, unassigned) [Compound 165, (R*)-(8-fluoro-10,11-dihydrobenzo[6,7]oxepino[3,2-b]pyridin-10-yl)-N-methylmethanamine]?
A: EC50 (human TAAR1 receptors): > 10 µM; IC50 (human 5-HT2A receptor; [2]): < 1 µM; IC50 (human 5-HT7 receptor): ≥ 10 µM

Q: How did the EC50 (human TAAR1 receptors) turn out when `CNCC1Cc2ncccc2Oc2ccc(F)cc21` (single isomer, unassigned) [Compound 166, (S*)-(8-fluoro-10,11-dihydrobenzo[6,7]oxepino[3,2-b]pyridin-10-yl)-N-methylmethanamine] was run?
A: Its EC50 is less than 1 µM.

Q: What about the IC50 (human 5-HT2A receptor; [1]) of the same compound?
A: The IC50 was less than 1 µM.

Q: And the IC50 (human 5-HT7 receptor)?
A: The IC50 was 1 to 10 µM.

Q: What does the source list for `NCC1Cc2ncccc2Oc2ccc(Cl)cc21` (single isomer, unassigned) [Compound 167, (R*)-(8-chloro-10,11-dihydrobenzo[6,7]oxepino[3,2-b]pyridin-10-yl)methanamine]?
A: EC50 (human TAAR1 receptors): < 1 µM; IC50 (human 5-HT2A receptor; [2]): 1 to 10 µM; IC50 (human 5-HT7 receptor): ≥ 10 µM

Q: With `CNCC1Cc2ncccc2Oc2ccc(Cl)cc21` (single isomer, unassigned) [Compound 170, (S*)-1-(8-chloro-10,11-dihydrobenzo[6,7]oxepino[3,2-b]pyridin-10-yl)-N-methylmethanamine] as the compound, how does the EC50 (human TAAR1 receptors) read?
A: Its EC50 is less than 1 µM.

Q: And the IC50 (human 5-HT2A receptor; [2])?
A: Its IC50 is less than 1 µM.

Q: And the IC50 (human 5-HT7 receptor)?
A: The IC50 was less than 1 µM.

Q: Which results are given for `NCC1Cc2ncccc2Oc2cc(Cl)ccc21` (single isomer, unassigned) [Compound 171, (R*)-(7-chloro-10,11-dihydrobenzo[6,7]oxepino[3,2-b]pyridin-10-yl)methanamine]?
A: EC50 (human TAAR1 receptors): 1 to 10 µM; IC50 (human 5-HT2A receptor; [2]): < 1 µM; IC50 (human 5-HT7 receptor): ≥ 10 µM

Q: Which EC50 (human TAAR1 receptors) does the source give for `NCC1Cc2ncccc2Oc2cc(Cl)ccc21` (single isomer, unassigned) [Compound 172, (S*)-(7-chloro-10,11-dihydrobenzo[6,7]oxepino[3,2-b]pyridin-10-yl)methanamine] here?
A: Its EC50 is less than 1 µM.

Q: And the IC50 (human 5-HT2A receptor; [1])?
A: The IC50 was less than 1 µM.

Q: What about the IC50 (human 5-HT7 receptor) of the same compound?
A: Its IC50 is no less than 10 µM.

Q: For `CNCC1Cc2ncccc2Oc2cc(Cl)ccc21` (single isomer, unassigned) [Compound 173, (R*)-1-(7-chloro-10,11-dihydrobenzo[6,7]oxepino[3,2-b]pyridin-10-yl)-N-methylmethanamine], which EC50 (human TAAR1 receptors) is on record?
A: The EC50 was greater than 10 µM.

Q: What about the IC50 (human 5-HT2A receptor; [3]) of the same compound?
A: Its IC50 is less than 1 µM.

Q: And the IC50 (human 5-HT7 receptor)?
A: The IC50 was no less than 10 µM.

Q: For `CNCC1Cc2ncccc2Oc2cc(Cl)ccc21` (single isomer, unassigned) [Compound 174, (S*)-1-(7-chloro-10,11-dihydrobenzo[6,7]oxepino[3,2-b]pyridin-10-yl)-N-methylmethanamine], which EC50 (human TAAR1 receptors) is on record?
A: The EC50 was greater than 10 µM.

Q: What about the IC50 (human 5-HT2A receptor; [3]) of the same compound?
A: Its IC50 is less than 1 µM.

Q: What about the IC50 (human 5-HT7 receptor) of the same compound?
A: Its IC50 is 1 to 10 µM.

Q: Which results are given for `NCC1Cc2ncccc2Oc2c(F)cccc21` (single isomer, unassigned) [Compound 176, (S*)-(6-fluoro-10,11-dihydrobenzo[6,7]oxepino[3,2-b]pyridin-10-yl)methanamine]?
A: EC50 (human TAAR1 receptors): < 1 µM; IC50 (human 5-HT2A receptor; [2]): > 10 µM; IC50 (human 5-HT7 receptor): ≥ 10 µM

Q: What does the source list for `NCC1Cc2ncc(Cl)cc2Oc2ccccc21` (single isomer, unassigned) [Compound 179, (R*)-(3-chloro-10,11-dihydrobenzo[6,7]oxepino[3,2-b]pyridin-10-yl)methanamine]?
A: EC50 (human TAAR1 receptors): 1 to 10 µM; IC50 (human 5-HT2A receptor; [2]): 1 to 10 µM; IC50 (human 5-HT7 receptor): ≥ 10 µM

Q: `NCC1Cc2ncc(Cl)cc2Oc2ccccc21` (single isomer, unassigned) [Compound 180, (S*)-(3-chloro-10,11-dihydrobenzo[6,7]oxepino[3,2-b]pyridin-10-yl)methanamine] was tested. Which EC50 (human TAAR1 receptors) did it give?
A: The EC50 was less than 1 µM.

Q: What about the IC50 (human 5-HT2A receptor; [1]) of the same compound?
A: Its IC50 is 1 to 10 µM.

Q: What about the IC50 (human 5-HT7 receptor) of the same compound?
A: Its IC50 is no less than 10 µM.

Q: Which results are given for `C[C@@H]1c2ccccc2Oc2cccnc2[C@@H]1CN` (stereo in doubt) [Compound 112, ((10S*,11S*)-10-methyl-10,11-dihydrobenzo[6,7]oxepino[3,2-b]pyridin-11-yl)methanamine]?
A: EC50 (human TAAR1 receptors): < 1 µM; IC50 (human 5-HT2A receptor; [2]): > 10 µM; IC50 (human 5-HT7 receptor): ≥ 10 µM

Q: Which results are given for `C[C@@H]1c2ccccc2Oc2cccnc2[C@H]1CN` (stereo in doubt) [Compound 114, ((10S*,11R*)-10-methyl-10,11-dihydrobenzo[6,7]oxepino[3,2-b]pyridin-11-yl)methanamine]?
A: EC50 (human TAAR1 receptors): < 1 µM; IC50 (human 5-HT2A receptor; [2]): 1 to 10 µM; IC50 (human 5-HT7 receptor): ≥ 10 µM

Q: For `C[C@H]1c2ccccc2Oc2cccnc2[C@@H]1CN` (stereo in doubt) [Compound 115, ((10R*,11S*)-10-methyl-10,11-dihydrobenzo[6,7]oxepino[3,2-b]pyridin-11-yl)methanamine], which EC50 (human TAAR1 receptors) is on record?
A: The EC50 was 1 to 10 µM.

Q: What about the IC50 (human 5-HT2A receptor; [2]) of the same compound?
A: Its IC50 is greater than 10 µM.

Q: And the IC50 (human 5-HT7 receptor)?
A: Its IC50 is no less than 10 µM.

Q: What does the source list for `CNC[C@H]1c2ncccc2Oc2ccccc2[C@H]1C` (stereo in doubt) [Compound 116, ((10S*,11S*)-10-methyl-10,11-dihydrobenzo[6,7]oxepino[3,2-b]pyridin-11-yl)-N-methylmethanamine]?
A: EC50 (human TAAR1 receptors): < 1 µM; IC50 (human 5-HT2A receptor; [2]): 1 to 10 µM; IC50 (human 5-HT7 receptor): ≥ 10 µM

Q: Which EC50 (human TAAR1 receptors) does the source give for `CNC[C@@H]1c2ncccc2Oc2ccccc2[C@H]1C` (stereo in doubt) [Compound 118, ((10S*,11R*)-10-methyl-10,11-dihydrobenzo[6,7]oxepino[3,2-b]pyridin-11-yl)-N-methylmethanamine] here?
A: Its EC50 is less than 1 µM.

Q: And the IC50 (human 5-HT2A receptor; [2])?
A: Its IC50 is 1 to 10 µM.

Q: And the IC50 (human 5-HT7 receptor)?
A: The IC50 was no less than 10 µM.

Q: `CNC[C@H]1c2ncccc2Oc2ccccc2[C@@H]1C` (stereo in doubt) [Compound 119, ((10R*,11S*)-10-methyl-10,11-dihydrobenzo[6,7]oxepino[3,2-b]pyridin-11-yl)-N-methylmethanamine] was tested. Which EC50 (human TAAR1 receptors) did it give?
A: Its EC50 is 1 to 10 µM.

Q: What about the IC50 (human 5-HT2A receptor; [2]) of the same compound?
A: Its IC50 is 1 to 10 µM.

Q: What about the IC50 (human 5-HT7 receptor) of the same compound?
A: The IC50 was no less than 10 µM.

Q: For `NCC1Oc2ccccc2Cc2ccccc21` (stereo not drawn) [Compound 77, (6,11-dihydrodibenzo[b,e]oxepin-6-yl)methanamine], which EC50 (human TAAR1 receptors) is on record?
A: The EC50 was less than 1 µM.

Q: And the IC50 (human 5-HT2A receptor; [3])?
A: Its IC50 is 1 to 10 µM.

Q: What about the IC50 (human 5-HT7 receptor) of the same compound?
A: Its IC50 is no less than 10 µM.
